The values below come from patent publication US20240018122A1, “PYRIDAZINYL AMINO DERIVATIVES AS ALK5 INHIBITORS” (CHIESI FARMACEUTICI S.P.A., priority 2020, published 2024).

The target in the assay is human ALK5 (Homo sapiens (Human), UniProt P36897). Kind of assay: ADP-GLO Kinases assay, inhibitory activity on ALK5. The format is biochemical. The conditions noted are these: purified recombinant human ALK5 2.6 nM, TGFβ1 peptide substrate, 25° C, 150 min incubation, ADP-Glo detection; read-out: ALK5 IC50. In general terms: In ADP-Glo the light output rises with the ADP produced.
Sequence of human ALK5 (P36897 80-503 limits assumed): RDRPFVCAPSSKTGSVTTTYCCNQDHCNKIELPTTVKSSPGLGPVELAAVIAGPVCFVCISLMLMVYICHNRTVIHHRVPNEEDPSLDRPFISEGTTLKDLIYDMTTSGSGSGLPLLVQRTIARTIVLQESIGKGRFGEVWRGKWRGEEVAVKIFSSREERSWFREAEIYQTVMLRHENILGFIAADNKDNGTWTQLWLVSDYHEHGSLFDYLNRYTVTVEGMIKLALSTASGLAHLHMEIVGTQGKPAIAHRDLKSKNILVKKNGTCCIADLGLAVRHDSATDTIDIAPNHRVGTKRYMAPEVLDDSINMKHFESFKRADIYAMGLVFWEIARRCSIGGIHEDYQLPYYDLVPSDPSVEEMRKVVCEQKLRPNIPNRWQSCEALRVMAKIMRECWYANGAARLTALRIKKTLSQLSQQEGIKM
`CN1CCN(CCC(=O)Nc2cc(Nc3cc(-c4cc(Cl)ccc4F)nnc3CO)ccn2)CC1` [Example 174, N-(4-{[6-(5-chloro-2-fluorophenyl)-3-(hydroxymethyl)pyridazin-4-yl]amino}pyridin-2-yl)-3-(4-methylpiperazin-1-yl)propanamide]: the IC50 (commonly the point on the concentration scale where inhibition reaches its midpoint) was less than 1 nM.
Regarding `COC(=O)N(C)CCN1CCN(CC(=O)Nc2cc(Nc3cc(-c4cc(Cl)ccc4F)nnc3CO)ccn2)CC1` [Example 175, Methyl N-[2-(4-{[(4-{[6-(5-Chloro-2-Fluorophenyl)-3-(Hydroxymethyl)Pyridazin-4-Yl]Amino}Pyridin-2-Yl)Carbamoyl]Methyl}Piperazin-1-Yl)Ethyl]-N-Methylcarbamate], the IC50 is less than 1 nM.
`CN1CCN(CC(=O)Nc2cc(Nc3cc(-c4cc(Cl)ccc4F)nnc3CO)ccn2)CC1` [Example 176, N-(4-{[6-(5-chloro-2-fluorophenyl)-3-(hydroxymethyl)pyridazin-4-yl]amino}pyridin-2-yl)-2-(4-methylpiperazin-1-yl)acetamide]: the IC50 was less than 1 nM.
Turning to `CN1CCN(CCOc2ccc3c(Nc4cc(-c5cc(Cl)ccc5F)nnc4CO)ccnc3c2)CC1` [Example 177, [6-(5-Chloro-2-Fluorophenyl)-4-({7-[2-(4-Methylpiperazin-1-Yl)Ethoxy]Quinolin-4-Yl}Amino)Pyridazin-3-Yl]Methanol], the IC50 is less than 1 nM.
Take `CN1CCCN(CC(=O)Nc2cc(Nc3cc(-c4cc(Cl)ccc4F)nnc3CO)ccn2)CC1` [Example 178, N-(4-{[6-(5-Chloro-2-Fluorophenyl)-3-(Hydroxymethyl)Pyridazin-4-Yl]Amino}Pyridin-2-Yl)-2-(4-Methyl-1,4-Diazepan-1-Yl)Acetamide]: the IC50 is less than 1 nM.
`CN1CC2(CCN(CC(=O)Nc3cc(Nc4cc(-c5cc(Cl)ccc5F)nnc4CO)ccn3)CC2)C1` [Example 179, N-(4-{[6-(5-Chloro-2-Fluorophenyl)-3-(Hydroxymethyl)Pyridazin-4-Yl]Amino}Pyridin-2-Yl)-2-{2-Methyl-2,7-Diazaspiro[3.5]Nonan-7-Yl}Acetamide]: the IC50 is less than 1 nM.
Take `Nc1cc(Nc2cc(-c3cc(Cl)ccc3F)nnc2C(F)(F)F)ccn1` [Example 180, N4-[6-(5-Chloro-2-Fluorophenyl)-3-(Trifluoromethyl)Pyridazin-4-Yl]Pyridine-2,4-Diamine]: the IC50 was less than 1 nM.
In the case of `Fc1ccc(Cl)cc1-c1cc(Nc2ccncc2)c(C(F)(F)F)nn1` [Example 181], the IC50 is less than 1 nM.
Regarding `CN1CCN(CCC(=O)Nc2cc(Nc3cc(-c4cc(Cl)ccc4F)nnc3C(F)(F)F)ccn2)CC1` [Example 182, N-(4-{[6-(5-Chloro-2-Fluorophenyl)-3-(Trifluoromethyl) Pyridazin-4-Yl]Amino}Pyridin-2-Yl)-3-(4-Methylpiperazin-1-Yl)Propanamide], the IC50 was less than 1 nM.
In the case of `CN1CCN(CCOc2ccc3c(Nc4cc(-c5cc(Cl)ccc5F)nnc4C(F)(F)F)ccnc3c2)CC1` [Example 183, N-[6-(5-Chloro-2-Fluorophenyl)-3-(Trifluoromethyl)Pyridazin-4-Yl]-7-[2-(4-Methylpiperazin-1-Yl)Ethoxy]Quinolin-4-Amine] it was less than 1 nM; in that of `O=C(CCN1CCN(CCO)CC1)Nc1cc(Nc2cc(-c3cc(Cl)ccc3F)nnc2C(F)(F)F)ccn1` [Example 184, N-(4-{[6-(5-Chloro-2-Fluorophenyl)-3-(Trifluoromethyl)Pyridazin-4-Yl]Amino}Pyridin-2-Yl)-3-[4-(2-Hydroxyethyl)Piperazin-1-Yl]Propenamide], less than 1 nM.
On to `CS(=O)(=O)CCN1CCN(CCC(=O)Nc2cc(Nc3cc(-c4cc(Cl)ccc4F)nnc3C(F)(F)F)ccn2)CC1` [Example 185], for which the IC50 is less than 1 nM.
In the case of `N#CCCN1CCN(CCC(=O)Nc2cc(Nc3cc(-c4cc(Cl)ccc4F)nnc3C(F)(F)F)ccn2)CC1` [Example 186, N-(4-{[6-(5-chloro-2-fluorophenyl)-3-(trifluoromethyl)pyridazin-4-yl]amino}pyridin-2-yl)-3-[4-(2-cyanoethyl)piperazin-1-yl]propenamide], the IC50 was less than 1 nM.
`COC(=O)CCc1nnc(-c2cc(Cl)ccc2F)cc1Nc1ccnc(NC(=O)CCN2CCN(C)CC2)c1` [Example 187, Methyl 3-[6-(5-Chloro-2-Fluorophenyl)-4-({2-[3-(4-Methylpiperazin-1-Yl)Propanamido]Pyridin-4-Yl}Amino)Pyridazin-3-Yl]Propanoate]: the IC50 was less than 1 nM.
For `COC(=O)[C@H]1CC[C@@H](c2nnc(-c3cc(Cl)ccc3F)cc2Nc2ccnc(NC(=O)CCN3CCN(C)CC3)c2)CC1` [Example 188, methyl cis-4-(6-(5-chloro-2-fluorophenyl)-4-((2-(3-(4-methylpiperazin-1-yl)propanamido)pyridin-4-yl)amino)pyridazin-3-yl)cyclohexane-1-carboxylate], the IC50 lay in the range of 1 to 5 nM.
For `COC(=O)[C@H]1CC[C@H](c2nnc(-c3cc(Cl)ccc3F)cc2Nc2ccnc(NC(=O)CCN3CCN(C)CC3)c2)CC1` [Example 189, methyl trans-4-(6-(5-chloro-2-fluorophenyl)-4-((2-(3-(4-methylpiperazin-1-yl)propanamido)pyridin-4-yl)amino)pyridazin-3-yl)cyclohexane-1-carboxylate], the IC50 is less than 1 nM.
With `Cc1nnc(-c2cc(C(F)F)ccc2F)cc1Nc1ccnc(NC(=O)CCN2CCN(C)CC2)c1` [Example 190, N-[4-({6-[5-(Difluoromethyl)-2-Fluorophenyl]-3-Methylpyridazin-4-Yl}Amino)Pyridin-2-Yl]-3-(4-Methylpiperazin-1-Yl)Propenamide], the IC50 is less than 1 nM.
Regarding `COC(=O)CCCc1nnc(-c2cc(Cl)ccc2F)cc1Nc1ccnc(NC(=O)CCN2CCN(C)CC2)c1` [Example 191, Methyl 4-(6-(5-Chloro-2-Fluorophenyl)-4-((2-(3-(4-Methylpiperazin-1-Yl)Propanamido)Pyridin-4-Yl)Amino)Pyridazin-3-Yl)], the IC50 is less than 1 nM.
As for `Fc1ccc(Cl)cc1-c1cc(Nc2nc3cccnc3[nH]2)cnn1` [Example C1, 6-(5-chloro-2-fluorophenyl)-N-{3H-imidazo[4,5-b]pyridin-2-yl}pyridazin-4-amine, reference compound], the IC50 was 6290 nM.
On to `Nc1nccc(Nc2cnnc(-c3cc(Cl)ccc3F)c2)n1` [Example C2, N4-[6-(5-chloro-2-fluorophenyl)pyridazin-4-yl]pyrimidine-2,4-diamine, reference compound], for which the IC50 came to 482 nM.
The same measure for `COC(=O)c1cccc(-c2cc(Nc3ccnc(N)c3)cnn2)c1F` [Example C3, reference compound]: 10000 nM.
